Experimental data: BigSolDB 2.1

OC/C=C/c1ccccc1
solubility (mole fraction)
Details	253.15 K	258.15 K	263.15 K	268.15 K	273.15 K	278.15 K	283.15 K	288.15 K	293.15 K
in acetone	0.28	0.322	0.363	0.414	0.47	0.526	0.579	0.625	0.674
in ethanol	0.22	0.256	0.298	0.342	0.404	0.456	0.52	0.59	0.652
in ethyl acetate	0.208	0.243	0.29	0.351	0.416	0.486	0.547	0.61	0.659
in isobutanol	0.072	0.105	0.165	0.217	0.287	0.366	0.431	0.498	0.576
in isopropanol	0.195	0.242	0.288	0.33	0.394	0.446	0.512	0.582	0.649
in methanol	0.222	0.24	0.269	0.307	0.351	0.401	0.466	0.536	0.61
in methyl acetate	0.172	0.225	0.27	0.326	0.392	0.452	0.523	0.591	0.646
in n-butanol	0.125	0.162	0.214	0.269	0.342	0.412	0.479	0.553	0.608
in n-hexane	0.00446	0.00664	0.0104	0.0143	0.0194	0.0248	0.0294	0.0352	0.0418
in n-propanol	0.174	0.213	0.266	0.313	0.373	0.433	0.496	0.567	0.634
in sec-butanol	0.089	0.142	0.191	0.255	0.321	0.395	0.459	0.53	0.592

O=C(O)c1ccccc1O
solubility (mole fraction)
Details	298.15 K	303.15 K	308.15 K	313.15 K	318.15 K
in acetic acid	0.0531	0.0617	0.0709	0.0785	0.0903
in acetone	0.175	0.196	0.203	0.218	0.231
in ethyl acetate	0.13	0.14	0.154	0.165	0.179
in methanol	0.123	0.137	0.15	0.163	0.172
